According to PMC12406664, “New derivatives of 6-nitrocoumarin-3-thiosemicarbazone exhibit improved antiparasitic activity in the placenta against Trypanosoma cruzi and Toxoplasma gondii” (Antimicrobial Agents and Chemotherapy, 2025):

How the values were obtained:
[1] = Cyclic voltammetry, reduction potentials in DMSO (HDME, vs. Ag/AgCl); details: 2.00 V/s
Method: Electrochemical studies were carried out on a Metrohm Autolab instrument model PGSTAT204, using dimethyl sulfoxide (DMSO) as the solvent (1 mM solutions), tetrabutylammonium perchlorate (0.1 M TBAP) as the supporting electrolyte, a hanging drop mercury electrode (HDME) as the working electrode, Ag/AgCl (3M KCl) as the reference electrode and a graphite rod as the counter electrode. All measurements were performed after bubbling with nitrogen (N2) for 10 minutes.

[2] = test system: human placental explants (HPE); assay: Histopathology of uninfected HPE exposed to the compounds alone; details: explants incubated only with the compound, 24 h, IC50 concentration
Method: The HPE was fixed in 10% formaldehyde in 0.1 M phosphate buffer (pH 7.3) for 24 h, dehydrated in alcohol, clarified in xylene, embedded in paraffin, and sectioned at 3 µm. Paraffin histological sections were stained with hematoxylin-eosin for routine histological analysis, Picro Sirius red, and trichromic Masson for collagen histochemistry. Sections for the histological analysis were observed under an optical microscope (Leica DM500) and images were captured with a Leica ICC50 W camera ([7], [91]).

[3] = test system: T. gondii (RH strain) in BeWo cells; assay: T. gondii DNA load in infected BeWo cells by real-time qPCR; format: cell-based, Toxoplasma gondii; details: IC50 concentration
Method: (§1) Cells or HPE were exposed to parasites. […] The following treatment conditions were used in both infection models. […] Untreated cells or HPE served as a negative control, and the compounds’ activity was compared with the reference drugs (NFX and PMN).
Subsequently, cells were exposed to parasites at a 1:1 ratio (cell: parasite) for 24 hours. Finally, the cells were washed with PBS and harvested using trypsin. For the parasitic DNA load in the ex vivo infection model, HPE was incubated in 24-well plates and exposed to parasites at a concentration of 10^5 parasites/mL for 24 hours. Finally, they were washed with PBS and homogenized using the ultraturrax homogenizer OMNI TipTM. Genomic DNA was extracted from BeWo cells or HPE using the Wizard Genomic DNA Purification Kit (Promega, USA) following the manufacturer’s instructions. The resulting DNA was quantified using a μDrop Plate DNA quantification system on the Varioskan Flash multimode reader (Thermo Scientific, USA). For the amplification of human DNA and parasitic DNA, three pairs of primers specific for human GAPDH (hGADPH), T. cruzi satellite DNA, and T. gondii B1 gene DNA were used (Table 7). Each reaction mixture contained 0.5 µL of 10 nM of each primer (Forward and reverse), 1 ng of DNA from T. cruzi samples, 10 ng of DNA from T. gondii samples, 10 µL of SensiFASTTM SYBR Hi-ROX kit (Bioline, Heidelberg, Baden Württemberg, Germany), and ultrapure water (Sigma-Aldrich, St. Louis, MO, USA) for a total of 20 µL.
Amplification was carried out using the CFX96 Touch Deep Well Real-Time PCR Detection System (Biorad, California, USA) with the following cycling program: initial denaturation at 95°C for 3 min, followed by 40 cycles of denaturation at 95°C for 5 s, annealing at 60°C for 30 s, and a dissociation stage ranging from 60°C to 95°C. The relative quantification analysis of the results was expressed as RQ values using the comparative […] (∆∆Ct) ([80]).

[4] = test system: T. gondii (RH strain) in BeWo cells; assay: Infection of BeWo cells by T. gondii, infected cells counted by fluorescence microscopy; format: cell-based, Toxoplasma gondii; details: compound at IC50, untreated control 64 ± 6
Method: The effect of the compounds on the infection of BeWo trophoblast cells by T. gondii and T. cruzi was assessed. The DNA of T. gondii and T. cruzi was quantified in infected BeWo cells treated for 24 hours under two conditions: co-incubation and post-infection treatment. […] Fluorescence microscopy was employed to quantify the number of infected cells. The resulting images were analyzed using ImageJ software to count both infected and uninfected cells.
For the microscopic analysis of BeWo cells infected with T. cruzi, the cells were washed with PBS to remove the supernatant, fixed with 90% cold methanol, rewashed with PBS, and incubated for 5 minutes with 1 µg/mL—1 4,6-diamidino-2-phenylindole (DAPI) (Molecular Probes). To analyze BeWo cells infected with T. gondii, cells were fixed with 90% cold methanol, washed with PBS containing 0.05% Tween, and blocked using 3% BSA for 1 hour at 37°C. Then, they were incubated with the primary monoclonal antibody Toxoplasma gondii (TP3): sc-52255 at a dilution of 1:500 with 1% BSA overnight at 4°C. Afterward, the samples were incubated with the FITC anti-mouse IgG secondary antibody at a dilution of 1:100 with 1% BSA for 1 hour at 37°C. Finally, they were washed with PBS containing 0.05% Tween and incubated for 5 minutes with DAPI. Subsequently, the sections were mounted in Vectashield (ScyTek ACA). Sections for the analysis of cell infection by T. cruzi and T. gondii were observed under an epifluorescence microscope (Motic BA 310), and images were captured with a Motic 5 camera. T. cruzi amastigotes were identified by their morphology, including nuclear size and the presence of a kinetoplast, and were analyzed and quantified using ImageJ. At least 500 cells per condition were analyzed, and infected and non-infected cells were counted for every 100 cells ([35], [70]).
as §1

[5] = test system: T. gondii tachyzoites, RH strain; assay: Resazurin viability assay on free T. gondii tachyzoites; format: cell-based, Toxoplasma gondii
Source text: Untreated parasites served as a negative control.

[6] = test system: T. gondii tachyzoites (strain RH); assay: ESR spin trapping with DMPO in T. gondii; format: cell-based, Toxoplasma gondii; details: compound about 1 mM, menadione 20 µM
Method: Each tested hybrid was dissolved in spectroscopy-grade DMSO at an approximate concentration of 1 mM and added to a mixture containing Trypanosoma cruzi (Dm28c strain) or Toxoplasma gondii at a density of 50 × 10⁶ trypomastigotes or tachyzoites per mL, along with DMPO at a final concentration of 250 mM. Menadione (20 µM) was used as a positive control.
All spectra were acquired on the same scale after 15 scans.

[7] = test system: T. cruzi trypomastigotes, Dm28 strain; assay: Resazurin viability assay on free T. cruzi trypomastigotes; details: Trypanosoma cruzi, 24 h, read-out: Viability T. cruzi (%)
Method: The reduction of resazurin sodium salt was used to determine the trypanocidal and toxoplasmicidal activity of the 6-nitrocoumarin-thiosemicarbazone hybrids 1–8. For this, treatment with the compounds was carried out for 24 h at a concentration of 100 µM.
NFX was used as a positive control for T. cruzi, and PMN was used for T. gondii. Untreated parasites served as a negative control. […] Subsequently, parasites with their respective conditions were transferred to a 96-well white fluorescence reading plate, adding resazurin at a final concentration of […] with 0.8 mM phenazine. The plate was incubated for 3 hours at 37°C in a humidified atmosphere with 5% CO2, and fluorescence measurements were taken using a microplate reader (Thermo Scientific Varioskan Flash) at excitation wavelengths of 560 nm and emission wavelengths of 590 nm.

[8] = Cytotoxicity on cells (resazurin), EA.hy926; format: cell-based; details: human, EA.hy926 endothelial cells
Source text: Triton X-100 was used as a positive control, and untreated cells served as a negative control. In addition, the maximum concentration of DMSO was used as a control for the method. […] The obtained values were expressed as IC50([88]).

C/C(=N\NC(N)=S)c1c(O)c2cc([N+](=O)[O-])ccc2oc1=O [Compound 1, (E)−2-(1-(4-hydroxy-6-nitro-2-oxo-2H-chromen-3-yl)ethylidene)hydrazine-1-carbothioamide]
E(pIIa) ([1]; anodic peak IIa): −0.98 V | E(pIcb) ([1]; cathodic peak Icb, nitro reduction): ~−0.99 V | tissue damage caused by the compound itself in HPE [2]: neither compound induced tissue damage | decrease in parasite DNA load ([3]; co-incubation): around 50% | effect on parasite DNA load ([3]; post-infection treatment): no activity against the intracellular form | Infected cells (%) ([4]; co-incubation 24 h): 32 ± 7% | Infected cells (%) ([4]; post-infection treatment 24 h): 52 ± 4% | IC50 ([5]; Toxoplasma gondii, extracellular tachyzoites RH strain, 24 h, resazurin): 17.3 ± 0.5 µM | viability at 100 µM ([5]; Toxoplasma gondii, tachyzoites RH, 100 µM, 24 h): 24.3 ± 10.4% | SI = BeWo CC50/parasite IC50 ([5]; parasite T. gondii): 22.3 | SI = EA.hy926 CC50/parasite IC50 ([5]; parasite T. gondii): >23.1 | radical species detected by ESR spin trapping (DMPO) [6]: formation of only two spin adducts | viability at 100 µM [7]: 85.5 ± 11.3% | CC50 at 24 h [8]: > 400 µM
